The text below walks through data of US20050197336A1 (Miikana Therapeutics Corporation, priority 2004, published 2005).

One assay has as its system MCF7 cells. In words: Whole cell cytotoxicity assay: Sulforhodamine B. The class given is cell-based, human. The following applies: Homo sapiens; compound at 100 μM; MCF7 cell growth; 48 hours with drug; SRB staining. The protocol: The following procedure can be found on the Developmental Therapeutics Program NCI/NIH web site at http://dtp.nci.nih.gov/brancehes/btb/ivclsp.html.
1. Human tumor cell lines of HT29, A549 and MCF7 are grown in DMEM containing 10% fetal bovine serum and 2 mM L-glutamine. Cells are plated in a 96 well plate at a density of 5000 cells per well in 100 μL of growth medium and incubated at 37° C., 5% CO2, for 24 hours prior to the addition of experimental compounds.
2. Experimental drugs are solubilized in DMSO for a final concentration of 20 mM immediately prior to use. Drugs are further diluted in growth media for a total of nine drug concentrations and a growth control. At the 24 hour time point, one plate of cells is fixed in situ with TCA as a measurement of the cell population at time zero, or the time of drug addition.
3. The plates are further incubated with drug for an additional 48 hours.
4. The cells are fixed in situ by gently aspirating off the culture media and then adding 50 μL of ice cold 10% TCA per well and incubated at 4° C. for 60 minutes. The plates are washed with tap water five times and allowed to air dry for 5 minute.
5. 50 μL of a 0.4% (w/v) Sulforhodamine B solution in 1% (v/v) acetic acid is added per well and incubated for 30 minutes at room temperature.
6. Following staining, plates are washed five times with 1% acetic acid to remove any unbound dye and then allowed to air dry for 5 minutes.
7. Stain is solubilized with 100 μL of 10 mM Tris pH 10.5 per well and placed on an orbital rotator for 5 minutes.
8. Absorbance is read at 570 nm.
On the technique in general: The SRB assay estimates cell density from bound dye.

The test system of assay [1] is Histone deacetylase (HDAC), HeLa cell nuclear extract. As to the kind of experiment: In vitro fluorescent histone deacetylase assay (Biomol kit, HeLa cell nuclear extract). The following applies: compound at 100 μM; HeLa cell nuclear extract as HDAC source; substrate 50 μM; 10 min at room temperature. The class given is biochemical. The protocol: Histone deacetylase (HDAC) activity assays were performed using the HDAC fluorescent activity assay/drug discovery kit (Biomol Research Laboratories, Plymouth Meeting, Pa.) essentially according to the manufacturer's instructions. The included HeLa cell nuclear extract, which contains a mosaic of HDAC enzymes and other nuclear factors, was used as the source of HDAC activity. The final substrate concentration in the assay mixture was 50 μM. The reaction was allowed to proceed for 10 min at room temperature before stopping the reaction. Test compounds were prepared as 20 mM stock solutions in DMSO (Molecular Biology grade, Sigma-Aldrich Co. St. Louis, Mo.) and stored at −70° C. Serial dilutions of test compounds were prepared in assay buffer immediately prior to testing. DMSO was determined in a separate trial to have no significant effect on the activity of this assay at concentrations up to 5%; the final DMSO concentration in the wells was no more than 2% and therefore DMSO effects were safely neglected. Assays were performed in white polystyrene 96-well half-area assay plates (Corning, Corning, N.Y.) and measured on a Wallace 1420 fluorescent plate reader (Wallac Oy, Turku, Finland) with an excitation wavelength of 355 nm, an emission wavelength of 460 nm, and a 1 sec signal averaging time.

Molecules are shown by their SMILES.

With `O=C(NO)c1cnc(N2CCN(S(=O)(=O)c3cccnc3)CC2)s1` [Example 49, 2-[4-(pyridine-3-sulfonyl)-piperazin-1-yl]-thiazole-5-carboxylic acid hydroxyamide], in the assay with MCF7 cells, the inhibition at 100 µM worked out at 95.4%. Further, in assay [1], the “% inhibition HDAC @ 100 μM” value is listed as 85%.
On the same counts, the results for `Cc1cc(F)ccc1S(=O)(=O)N1CCN(c2ncc(C(=O)NO)s2)CC1` [Example 41, 2-[4-(4-fluoro-2-methylphenylsulfonyl)-piperazin-1-yl]-thiazole-5-carboxylic acid hydroxyamide] are 98.1% and 98%.
In the assay on MCF7 cells, `CN(C)CCN(C)Cc1cccc(-c2ccc(S(=O)(=O)N3CCN(c4ncc(C(=O)NO)s4)CC3)cc2)c1` [Example 85, 2-{4-[3′-{[(2-(dimethylamino)ethyl)(methyl)amino]methyl}-1,1′-biphenylsulfonyl]piperazin-1-yl}-1,3-thiazole-5-carboxylic acid hydroxyamide] displayed an inhibition at 100 µM of 97.5%.
Consider `O=C(NO)c1cnc(N2CCN(S(=O)(=O)c3ccc(OC(F)(F)F)cc3)CC2)s1` [Example 3, 2-[4-(4-trifluoromethoxy-benzenesulfonyl)-piperazin-1-yl]-thiazole-5-carboxylic acid hydroxyamide], for which the inhibition at 100 µM in the assay on MCF7 cells was 95.3%. In addition, the “% inhibition HDAC @ 100 μM” value in assay [1] stood at 93%.
For `CSc1nccc(-c2ccc(S(=O)(=O)N3CCN(c4ncc(C(=O)NO)s4)CC3)s2)n1` [Example 45, 2-[4-(2-{2-methylthiopyrimidine-4-yl}-5-thiophenesulfonyl)-piperazin-1-yl]-thiazole-5-carboxylic acid hydroxyamide] the same measures were 78.7% and 95%.
Molecule `CCCCS(=O)(=O)N1CCN(c2ncc(C(=O)NO)s2)CC1` [Example 53, 2-[4-(n-butylsulfonyl)piperazin-1-yl]-thiazole-5-carboxylic acid hydroxyamide] returned an inhibition at 100 µM in the assay with MCF7 cells of 89.9%. The “% inhibition HDAC @ 100 μM” value in assay [1] stood at 94%.
On to `O=C(NO)c1cnc(N2CCN(S(=O)(=O)c3ccc(-c4sccc4CN4CCCC4)cc3)CC2)s1` [Example 89], for which, in the assay on MCF7 cells, the inhibition at 100 µM came to 98.3%. Moreover, the “% inhibition HDAC @ 100 μM” value in assay [1] was 99%.
For `CN(C)c1cccc2c(S(=O)(=O)N3CCN(c4ncc(C(=O)NO)s4)CC3)cccc12` [Example 10, 2-[4-(5-dimethylamino-naphthalene-1-sulfonyl)-piperazin-1-yl]-thiazole-5-carboxylic acid hydroxyamide] the same measures were 97.8% and 88%.
For `CC(C)c1ccc(S(=O)(=O)N2CCN(c3ncc(C(=O)NO)s3)CC2)cc1` [Example 16, 2-[4-(4-isopropylphenylsulfonyl)-piperazin-1-yl]-thiazole-5-carboxylic acid hydroxyamide] the same measures were 90.9% and 100%.
On the same counts, the results for `COCc1cccc(S(=O)(=O)N2CCN(c3ncc(C(=O)NO)s3)CC2)c1` [Example 99, 2-[4-(3-methoxymethylbenzenesulfonyl)-piperazin-1-yl]-thiazole-5-carboxylic acid hydroxyamide] are 96% and 99%.
`O=C(NO)c1cnc(N2CCN(S(=O)(=O)c3ccc([N+](=O)[O-])cc3)CC2)s1` [Example 6, 2-[4-(4-nitro-benzenesulfonyl)-piperazin-1-yl]-thiazole-5-carboxylic acid hydroxyamide] came in with an inhibition at 100 µM with MCF7 cells of 95.1%. The “% inhibition HDAC @ 100 μM” value in assay [1] is reported as 97%.
On the same counts, the results for `CN1CCOc2cc(S(=O)(=O)N3CCN(c4ncc(C(=O)NO)s4)CC3)ccc21` [Example 48, 2-[4-(N-methyl-2,3-dihydrobenzisoxazinylsulfonyl)-piperazin-1-yl]-thiazole-5-carboxylic acid hydroxyamide] are 89.4% and 96%.
On the same counts, the results for `CN(C)Cc1ccc(-c2ccc(S(=O)(=O)N3CCN(c4ncc(C(=O)NO)s4)CC3)cc2)cc1` [Example 80] are 97.9% and 99%.
On to `CC(=O)c1ccc(S(=O)(=O)N2CCN(c3ncc(C(=O)NO)s3)CC2)cc1` [Example 7, 2-[4-(4-acetyl-benzenesulfonyl)-piperazin-1-yl]-thiazole-5-carboxylic acid hydroxyamide], for which, in the assay on MCF7 cells, the inhibition at 100 µM was found to be 83.3%.
The same measure, in the same setting: then `CS(=O)(=O)Nc1ccc(-c2ccc(S(=O)(=O)N3CCN(c4ncc(C(=O)NO)s4)CC3)cc2)cc1` [Example 70, 2-[4-(4′-methylsulfonylamino-1,1′-biphenylsulfonyl)piperazin-1-yl]-1,3-thiazole-5-carboxylic acid hydroxyamide], with 83.6%; and `O=C(NO)c1cnc(N2CCN(S(=O)(=O)c3ccc(Cl)cc3)CC2)s1` [Example 54, 2-[4-(chlorophenalsulfonyl)-piperazin-1-yl]-thiazole-5-carboxylic acid hydroxyamide], with 97.1%; and `O=C(NO)c1cnc(N2CCN(S(=O)(=O)c3ccc4c(c3)CCO4)CC2)s1` [Example 42, 2-[4-(2,3-dihydrobenzofuransulfonyl)-piperazin-1-yl]-thiazole-5-carboxylic acid hydroxyamide], with 90%.
Same read-out and setting: then `CCc1ccc(S(=O)(=O)N2CCN(c3ncc(C(=O)NO)s3)CC2)cc1` [Example 100, 2-[4-(4-Ethylbenzenesulfonyl)piperazin-1-yl]-thiazole-5-carboxylic acid hydroxyamide], with 96.8%; and `O=C(NO)c1cnc(N2CCN(S(=O)(=O)c3ccc(-c4ccc[nH]4)cc3)CC2)s1` [Example 67, 2-(4-{[4-(1H-pyrrol-2-yl)phenyl]sulfonyl}piperazin-1-yl)-1,3-thiazole-5-carboxylic acid hydroxyamide], with 98%; and `O=C(NO)c1cnc(N2CCN(S(=O)(=O)c3ccc(C(F)(F)F)cc3)CC2)s1` [Example 5, 2-[4-(4-trifluoromethyl-benzenesulfonyl)-piperazin-1-yl]-thiazole-5-carboxylic acid hydroxyamide], with 97.9%.
Same read-out and setting: for `O=C(NO)c1cnc(N2CCN(S(=O)(=O)c3ccccc3Cl)CC2)s1` [Example 17, 2-[4-(2-chlorophenalsulfonyl)-piperazin-1-yl]-thiazole-5-carboxylic acid hydroxyamide] the value was 97.8%; for `CN(C)c1cccc(-c2ccc(S(=O)(=O)N3CCN(c4ncc(C(=O)NO)s4)CC3)cc2)c1` [Example 71, 2-[4-(3′-(dimethylamino)-1,1′-biphenylsulfonyl)piperazin-1-yl]-1,3-thiazole-5-carboxylic acid hydroxyamide], 97.2%.
The molecule `O=C(NO)c1cnc(N2CCN(S(=O)(=O)c3cc(F)cc(F)c3)CC2)s1` [Example 52, 2-[4-(3,5-difluorophenylsulfonyl)-piperazin-1-yl]-thiazole-5-carboxylic acid hydroxyamide] came in with an inhibition at 100 µM with MCF7 cells of 97.3%.
Same read-out and setting: then `O=C(NO)c1cnc(N2CCN(S(=O)(=O)c3ccc(Cl)c(Cl)c3)CC2)s1` [Example 15, 2-[4-(3,4-dichlorolphenylsulfonyl)-piperazin-1-yl]-thiazole-5-carboxylic acid hydroxyamide], with 88.5%; and `O=C(NO)c1cnc(N2CCN(S(=O)(=O)c3ccc4c(c3)OCCO4)CC2)s1` [Example 44, 2-[4-(3,4-benzodioxansulfonyl)-piperazin-1-yl]-thiazole-5-carboxylic acid hydroxyamide], with 91.7%.
Still for that read-out and setting: for `O=C(NO)c1cnc(N2CCN(S(=O)(=O)c3ccc(-c4ccc(C(=O)N5CCOCC5)cc4)cc3)CC2)s1` [Example 69, 2-[4-(4′-(morpholin-4-ylcarbonyl)-1,1′-biphenylsulfonyl)piperazin-1-yl]-1,3-thiazole-5-carboxylic acid hydroxyamide] the value was 87.7%; for `O=C(NO)c1cnc(N2CCN(S(=O)(=O)c3ccc(-n4cccn4)cc3)CC2)s1` [Example 101, 2-[4-(4-pyrazolylbenzenesulfonyl)-piperazin-1-yl]-thiazole-5-carboxylic acid hydroxyamide], 98.1%.

The term inhibition denotes the relative decrease from the control value, in per cent. Read a low inhibition as little suppression.
